Values of other authors in US20090048317A1, “Formulations of candesartan” (priority 2007, published 2009).

Conditions: in water and in methanol

## CCOc1nc2cccc(C(=O)OC(C)OC(=O)OC3CCCCC3)c2n1Cc1ccc(-c2ccccc2-c2nnn[nH]2)cc1 (racemic) [Candesartan cilexetil, (±)-1-[[(cyclohexyloxy)carbonyl]oxy]ethyl-2-ethoxy-1-[[′-(1H-tetrazol-5-yl)[1,1-biphenyl]-4-yl]methyl]-1H-benzimidazole-7-carboxylate]
  solubility: sparingly soluble
